Consider four compounds from patent US20250270216A1, “ANTI-INFECTIVE AGENTS” (UNIVERSITY OF DUNDEE, priority 2022, published 2025).

One assay has as its system Cryptosporidium parvum. The experiment in a line: In vitro inhibition of Cryptosporidium (method of Bessoff et al.). Format: cell-based. Particulars: read-out: C. parvum PEC50 (converted). An excerpt: Assay Method for Measurement of In Vitro Inhibition of Cryptosporidium
These experiments were run in accordance with the method of Besssoff et. al. Antimicrob. Agents Chemother. 2013, 57:1804-1814. Results from these experiments are provided in the Experimental Results hereinafter.

The test system of the next assay is C. parvum Iowa strain. The experiment in a line: Cryptosporidiosis NOD SCID gamma mouse model, fecal oocyst shedding by quantitative PCR. It is filed as in vivo, Cryptosporidium parvum. To be noted: NOD SCID gamma mice, average reduction in oocyst shedding compared to untreated vehicle. An excerpt: The in vivo measurement of the potential efficacy of compounds of formula (I) in a cryptosporidium mouse model has been carried out following the method described in Antimicrob. Agents Ch., 2018, 62, 4, e01505-17, and which is summarised below. The cryptosporidiosis NOD SCID gamma mouse model was run as follows: Male NOD SCID gamma mice (NOD.Cg-Prkdc^scid II2rg^tm1Wjt/SzJ, Jackson Labs) were infected approximately 2 weeks post weaning with 10^5 C. parvum Iowa strain oocysts by oral gavage. Four mice were used per experimental group. This establishes a chronic, asymptomatic infection of the small intestine, cecum, and biliary tree. Fecal parasite shedding is monitored by quantitative PCR to amplify C. parvum DNA. One week after infection (which is the timing with which shedding becomes uniformly detected), compounds are dosed by oral gavage. Treatment continued for seven days total. The number of oocysts per milligram of stool was measured for each mouse on day 8 (1 day after completion of the last dose) and day 15 […] (7 days after the completion of the last dose). Average oocyst concentrations were calculated for each group of mice. Log reduction is the average reduction in oocyst shedding compared to untreated vehicle. These experiments were run in accordance with the method of C. D. Huston et al, Antimicrob. Agents Ch., 2018, 62, 4, e01505-17.

In assay [1] the test system is Hep G2 (Human hepatocyte carcinoma). Nature of the assay: In vitro inhibition of HepG2 cells (cytotoxicity). Particulars: read-out: Hs HepG2 PEC50 (converted). Format: cell-based. An excerpt: Assay Method for Measurement of In Vitro Inhibition of HepG2 Cells (Cytotoxicity)
These experiments were run in accordance with the method of Mersch-Sundermann V et. al. Toxicology 2004, 198:329-340

Assay [2] addresses T1, Human lysyl tRNA Synthetase (KRS) (Homo sapiens, UniProt Q15046).
T1 construct: His tag with PreScission site (His PP pET15b); made in house; host or cells: E. coli BL21 (DE3)
The experiment in a line: In vitro inhibition of human lysyl tRNA synthetase (KRS), Biomol green phosphate detection. Particulars: 3.5 μM ATP, 6 μM L-Lysine, 5 h room temperature; read-out: Hs KRS pIC50 (converted). It is filed as biochemical. The protocol: The gene coding for Human KRS, codon optimized for expression in E. coli, was obtained from Genscript and cloned into a His PP pET15b vector using Nde1 and Xho1 restriction sites. The resulting vector was used to transform BL21 (DE3) competent cells for protein expression. A 120 ml overnight culture was set up and grown at 37° C. 200 rpm for 16 h and used the next day to inoculate 6 litres of Autoinduction+AMP medium. This culture was grown at 37° C. for 4 h then 20° C. for 20 h. The cells were harvested by centrifugation at 3,500 g for 30 min then stored at −20° C. The resulting cell pellet was 50 g. Lysis buffer (150 ml, 25 mM HEPES/500 mM NaCl/20 mM imidazole/2 mM DTT/10% glycerol pH 7.5/protease inhibitor tablets/DNAase) was added and the pellets for defrosted at room temperature for approximately 10 min. The slurry was then passed through a Cell Disrupter (Constant Systems) set at […] to lyse the cells. The sample was then centrifuged at 40,000 g for 20 min. The supernatant was then filtered using syringe filters to 0.45 μm. The supernatant was loaded onto a 5 ml HiTrap Ni HP column that had been equilibrated with BufferA (25 mM HEPES/500 mM NaCl/20 mM Imidazole/2 mM DTT/10% Glycerol pH 7.5) at 5 ml/min using an AKTA Pure system. Once loaded the column was washed with 10 column volumes buffer A. A 5% step of Buffer B (25 mM HEPES/500 mM NaCl/500 mM Imidazole/2 mM DTT/10% Glycerol pH 7.5) was then used to wash off His rich contaminating proteins. A gradient of 5-50% B was used to elute the protein. Approximately 55 mg of protein was present in the fractions containing the HsKRS protein. The sample was then passed through a 0.2 μm filter, before loading onto a XK26/60 Superdex 200 column equilibrated with Buffer C (25 mM HEPES/150 mM NaCl/2 mM DTT/10% glycerol pH 7.0) using an AKTA Pure system at 4° C. at 2 ml/min. The sample was then dialyzed into 25 mM HEPES/500 mM NaCl//2 mM DTT/10% glycerol/0.25% azide pH 7.0. The protein was concentrated to 1 mg/ml and frozen at −80° C. Approximately 23 mg of protein was produced.
Assay Method for Measurement of In Vitro Inhibition of Human lysyl tRNA Synthetase (KRS)
Potency of compounds was determined in 10 points dose-response inhibition curves. Compounds were transferred into 384-well clear bottom plates (Greiner Bio-One, 781101) using an Echo 550 acoustic dispenser (Labcyte). Using an automatic liquid dispenser, 50 μL reaction mixes were prepared by adding 25 μL of substrate mix into all wells followed by the addition of 25 μL enzyme mix into all wells (final reaction: 30 mM Tris-HCl, pH 8.0, 40 mM MgCl2, 140 mM NaCl, 30 mM KCl, 0.01% Brij-35, 1 mM DTT, 3.5 μM ATP, 6 μM L-Lysine, 200 nM […] and 0.5 U/mL Pyrophosphatase). Complete inhibition control reactions were performed in the presence of 100 μM of control compoundand the plates were incubated at room temperature for 5 h. Reactions were stopped by the addition of Biomol green (50 μL: Enzo Life Sciences) with the amount of free phosphate detected by measuring absorbance (650 nm) after 20 min further incubation (BMG Pherastar plate reader). Counter screen assays to eliminate direct inhibition of pyrophsphatase were performed using 0.5 U/mL pyrophosphatase and 3 μM pyrophosphate as substrate in the same assay buffer (30 mM Tris-HCl, pH 8.0, 40 mM MgCl2, 140 mM NaCl, 30 mM KCl, 0.01% Brij-35, 1 mM DTT) for 5 hours at room temperature. Biomol green was added and incubated for 20 min before detection as above. Samples were run in duplicate and data was processed and analysed using ActivityBase (IDBS).

T1 sequence (Q15046 whole entry): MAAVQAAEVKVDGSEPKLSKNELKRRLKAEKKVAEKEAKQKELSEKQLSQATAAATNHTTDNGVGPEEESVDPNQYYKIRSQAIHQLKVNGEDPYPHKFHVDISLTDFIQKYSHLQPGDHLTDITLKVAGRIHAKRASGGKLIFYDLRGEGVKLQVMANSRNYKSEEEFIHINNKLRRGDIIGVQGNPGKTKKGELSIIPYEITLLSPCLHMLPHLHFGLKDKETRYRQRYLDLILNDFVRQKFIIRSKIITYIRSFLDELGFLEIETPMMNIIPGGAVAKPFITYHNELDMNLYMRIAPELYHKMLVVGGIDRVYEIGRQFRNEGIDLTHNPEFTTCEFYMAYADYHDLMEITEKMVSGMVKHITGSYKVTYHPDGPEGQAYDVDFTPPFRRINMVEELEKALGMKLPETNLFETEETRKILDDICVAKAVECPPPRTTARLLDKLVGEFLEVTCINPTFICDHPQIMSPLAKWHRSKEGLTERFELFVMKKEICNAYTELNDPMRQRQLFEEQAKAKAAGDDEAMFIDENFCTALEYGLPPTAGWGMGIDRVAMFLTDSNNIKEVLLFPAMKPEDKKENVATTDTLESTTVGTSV

As for `Nc1nc2c(c(C(F)F)n1)C(=O)N(C[C@@H]1CCC[C@H](C(F)(F)F)C1)C2` [Compound 3, 2-amino-4-(difluoromethyl)-6-(((1R,3S)-3-(trifluoromethyl)cyclohexyl)methyl)-6,7-dihydro-5H-pyrrolo[3,4-d]pyrimidin-5-one], the figures for the EC50 (in the assay on Cryptosporidium parvum; in assay [1]) were 0.0251 µM and 25.1 µM, respectively. For the same compound, the “Log Reduction (day 8)” value in the assay with C. parvum Iowa strain (10 mg/kg P.O. B.I.D. 7 days) was determined as 2.4; with C. parvum Iowa strain (30 mg/kg P.O. B.I.D. 7 days), 2.8. Further, the “Log Reduction (day 15)” value in the assay with C. parvum Iowa strain (10 mg/kg P.O. B.I.D. 7 days) is 1.0; in the assay on C. parvum Iowa strain (30 mg/kg P.O. B.I.D. 7 days), 1.6. Besides, the IC50 in assay [2] was over 100 µM.

`Nc1nc2c(c(C(F)(F)F)n1)C(=O)N(C[C@@H]1CCC[C@H](C(F)(F)F)C1)C2` [Compound 1, 2-amino-4-(trifluoromethyl)-6-(((1R,3S)-3-(trifluoromethyl)cyclohexyl)methyl)-6,7-dihydro-5H-pyrrolo[3,4-d]pyrimidin-5-one]: the values for the EC50 (in the assay with Cryptosporidium parvum; in assay [1]) were 0.0316 µM and 25.1 µM, respectively. For the same compound, the “Log Reduction (day 8)” value in the assay on C. parvum Iowa strain (10 mg/kg P.O. B.I.D. 7 days) is on record as 3.0; in the assay on C. parvum Iowa strain (20 mg/kg P.O. B.I.D. 7 days), 3.1; with C. parvum Iowa strain (30 mg/kg P.O. B.I.D. 7 days) it was 2.9; with C. parvum Iowa strain (40 mg/kg P.O. B.I.D. 7 days) it was 2.6; in the assay with C. parvum Iowa strain (50 mg/kg P.O. B.I.D. 7 days), 3.4. For the same compound, the “Log Reduction (day 15)” value with C. parvum Iowa strain (10 mg/kg P.O. B.I.D. 7 days) is 1.0; with C. parvum Iowa strain (20 mg/kg P.O. B.I.D. 7 days), 0.7; with C. parvum Iowa strain (30 mg/kg P.O. B.I.D. 7 days) it was 2.2; with C. parvum Iowa strain (40 mg/kg P.O. B.I.D. 7 days) it was 2.9; with C. parvum Iowa strain (50 mg/kg P.O. B.I.D. 7 days), 3.5. Besides, in assay [2], the IC50 was 20 µM.

Turning to `Nc1nc2c(c(C(F)(F)F)n1)C(=O)N(CC1CCCC3(CC3)C1)C2` (racemic) [Compound 4, 2-amino-6-(spiro[2.5]octan-5-ylmethyl)-4-(trifluoromethyl)-6,7-dihydro-5H-pyrrolo[3,4-d]pyrimidin-5-one], the results for the EC50 (with Cryptosporidium parvum; in assay [1]) were 0.158 µM and 20 µM, respectively. The “Log Reduction (day 8)” value is recorded as 1.3 in the assay with C. parvum Iowa strain (10 mg/kg P.O. B.I.D. 7 days) and 3.4 in the assay with C. parvum Iowa strain (50 mg/kg P.O. B.I.D. 7 days). Further, the “Log Reduction (day 15)” value in the assay on C. parvum Iowa strain (10 mg/kg P.O. B.I.D. 7 days) is reported as 1.0; with C. parvum Iowa strain (50 mg/kg P.O. B.I.D. 7 days), 2.5. In addition, in assay [2], the IC50 is over 100 µM.

As to `Cc1nc(N)nc2c1C(=O)N(C[C@@H]1CCC[C@H](C(F)(F)F)C1)C2` [Compound 2, 2-amino-4-methyl-6-(((1R,3S)-3-(trifluoromethyl)cyclohexyl)methyl)-6,7-dihydro-5H-pyrrolo[3,4-d]pyrimidin-5-one], the EC50 was 0.02 µM in the assay on Cryptosporidium parvum and 12.6 µM in assay [1]. In addition, the “Log Reduction (day 8)” value stood at 1.8 with C. parvum Iowa strain (10 mg/kg P.O. B.I.D. 7 days) and 2.7 in the assay on C. parvum Iowa strain (30 mg/kg P.O. B.I.D. 7 days). The results for the “Log Reduction (day 15)” value in the assay on C. parvum Iowa strain (10 mg/kg P.O. B.I.D. 7 days) and with C. parvum Iowa strain (30 mg/kg P.O. B.I.D. 7 days) were 0.8 and 2.4, respectively. Moreover, in assay [2], the IC50 was 20 µM.
